Converted amounts (≈) assume the structure as drawn. The source made the active and inactive calls. No cut-off for these calls is given here.
Columns and labels:
[1] = system: HL-60; experiment: Induction of apoptosis in human HL-60 cells assessed as late apoptotic cells at 8 uM after 48 hrs by Annexin V-PE/7-AAD dual staining based flow cytometry (Rvb =3.93%); type: functional
[2] = system: HL-60; experiment: Induction of apoptosis in human HL-60 cells assessed as live cells at 8 uM after 48 hrs by Annexin V-PE/7-AAD dual staining based flow cytometry (reference value: 90.1 to 90.7%); type: functional
[3] = system: HL-60; experiment: Induction of apoptosis in human HL-60 cells assessed as early apoptotic cells at 8 uM in presence of 3-MA after 48 hrs by Annexin V-PE/7-AAD dual staining based flow cytometry (reference value: 3.14%); type: functional
[4] = system: HL-60; experiment: Induction of apoptosis in human HL-60 cells assessed as early apoptotic cells at 10 uM after 48 hrs by Annexin V-PE/7-AAD dual staining based flow cytometry (reference value: 1.72 to 3.25%); type: functional
[5] = system: HL-60; experiment: Induction of apoptosis in human HL-60 cells assessed as necrotic cells at 8 uM after 48 hrs by Annexin V-PE and 7AAD based flow cytometry (reference value: 2.64 to 3.64%); type: functional
[6] = system: HL-60; experiment: Induction of apoptosis in human HL-60 cells assessed as necrotic cells at 10 uM in presence of 3-MA after 48 hrs by Annexin V-PE/7-AAD dual staining based flow cytometry (reference value: 2.62%); type: functional
[7] = system: Jurkat; experiment: cells; type: functional, cell-based; details: Homo sapiens, 72 h
Description: Cytotoxicity against human Jurkat cells assessed as inhibition of cell viability measured after 72 hrs by real-time IncuCyte proliferation analysis

[8] = system: HL-60; experiment: Induction of apoptosis in human HL-60 cells assessed as live cells at 6 uM after 48 hrs by Annexin V-PE/7-AAD dual staining based flow cytometry (reference value: 90.1 to 90.7%); type: functional
[9] = system: HL-60; experiment: Cell cycle arrest in human HL-60 cells assessed as decrease in accumulation in S phase at 6 uM incubated for 48 hrs by propidium iodide staining based flow cytometric analysis (reference value: […]); type: functional; parameters: scale not given: the % may be the effect or the level left
[10] = system: MV4-11; experiment: cells; type: functional, cell-based; details: Homo sapiens, MV4-11, 72 h
Description: Cytotoxicity against human MV4-11cells assessed as inhibition of cell viability measured after 72 hrs by real-time IncuCyte proliferation analysis

[11] = system: HL-60; experiment: Induction of mitochondrial membrane potential loss in human HL-60 cells at 10 uM after 48 hrs by JC-1 staining based flow cytometry (reference value: 3.49%); type: functional
[12] = system: Salmonella enterica subsp. enterica; experiment: Antibacterial activity against Salmonella enterica subsp.enterica ATCC13076 assessed as growth inhibition after 20 hrs by broth microdilution method; type: functional
[13] = Antiproliferative activity against human DND41 cells assessed as inhibition of cell viability measured after 72 hrs by real-time IncuCyte proliferation analysis; type: functional, cell-based; details: DND41, 72 h
[14] = system: HL-60; experiment: Induction of autophagy in human HL-60 cells assessed as fold increase in MDC fluorescence intensity at 6 uM measured after 48 hrs by flow cytometry relative to control; type: functional
[15] = system: K562; experiment: cells; type: functional, cell-based; details: Homo sapiens, K562, 72 h
Description: Antiproliferative activity against human K562 cells assessed as inhibition of cell viability measured after 72 hrs by real-time IncuCyte proliferation analysis

[16] = system: HL-60; experiment: Cell cycle arrest in human HL-60 cells assessed as decrease in accumulation in S phase at 8 uM incubated for 48 hrs by propidium iodide based flow cytometric analysis (reference value: 28.42%); type: functional; parameters: scale not given: the % may be the effect or the level left
[17] = system: HL-60; experiment: Induction of apoptosis in human HL-60 cells assessed as early apoptotic cells at 8 uM after 48hrs by Annexin V-PE/7-AAD dual staining based flow cytometry (reference value: 1.72 to 3.25%); type: functional
[18] = Antiproliferative activity against human HAP1 cells assessed as inhibition of cell viability measured after 72 hrs by colorimetric MTS viability assay; type: functional, cell-based; details: HAP1, 72 h
[19] = system: Z-138; experiment: cells; type: functional, cell-based; details: Homo sapiens, Z-138, 72 h
Description: Antiproliferative activity against human Z138 cells assessed as inhibition of cell viability measured after 72 hrs by real-time IncuCyte proliferation analysis

[20] = system: HL-60; experiment: Induction of apoptosis in human HL-60 cells assessed as late apoptotic cells at 6 uM in presence of 3-MA after 48 hrs by Annexin V-PE/7-AAD dual staining based flow cytometry (reference value: 3.12%); type: functional
[21] = system: HL-60; experiment: Induction of mitochondrial membrane potential loss in human HL-60 cells at 8 uM after 48 hrs by JC-1 staining based flow cytometry (reference value: 3.49%); type: functional
[22] = system: HL-60; experiment: Induction of apoptosis in human HL-60 cells assessed as early apoptotic cells at 6 uM after 48 hrs by Annexin V-PE/7-AAD dual staining based flow cytometry (reference value: 1.72 to 3.25%); type: functional
[23] = system: HL-60; experiment: Induction of apoptosis in human HL-60 cells assessed as live cells at 8 uM in presence of 3-MA after 48 hrs by Annexin V-PE/7-AAD dual staining based flow cytometry (reference value: 91.1%); type: functional
[24] = system: HL-60; experiment: Cell cycle arrest in human HL-60 cells assessed as accumulation of cells at G2/M phase at 10 uM incubated for 48 hrs by propidium based flow cytometric analysis (reference value: 6.61%); type: functional
[25] = system: Staphylococcus aureus; experiment: Antibacterial activity against Staphylococcus aureus ATCC65385 assessed as growth inhibition after 20 hrs by broth microdilution method; type: functional
[26] = system: HL-60; experiment: Induction of apoptosis in human HL-60 cells assessed as live cells at 6 uM in presence of 3-MA after 48 hrs by Annexin V-PE/7-AAD dual staining based flow cytometry (reference value: 91.1%); type: functional
[27] = system: HL-60; experiment: Induction of apoptosis in human HL-60 cells assessed as live cells at 10 uM after 48 hrs by Annexin V-PE/7-AAD dual staining based flow cytometry (reference value: 90.1 to 90.7%); type: functional
[28] = system: HL-60; experiment: Induction of apoptosis in human HL-60 cells assessed as late apoptotic cells at 10 uM in presence of 3-MA after 48 hrs by Annexin V-PE/7-AAD dual staining based flow cytometry (reference value: 3.12%); type: functional
[29] = system: HL-60; experiment: Cell cycle arrest in human HL-60 cells assessed as accumulation of cells at G2/M phase at 6 uM incubated for 48 hrs by propidium iodide staining based flow cytometric analysis (reference value: 6.61%); type: functional
[30] = system: HL-60; experiment: Induction of apoptosis in human HL-60 cells assessed as necrotic cells at 6 uM after 48 hrs by Annexin V-PE/7-AAD dual staining based flow cytometry (reference value: 2.64 to 3.64%); type: functional
[31] = system: HL-60; experiment: Cell cycle arrest in human HL-60 cells assessed as increase in accumulation in G0/G1 phase at 6 uM incubated for 48 hrs by propidium iodide staining based flow cytometric analysis (reference value: 64.97%); type: functional
[32] = system: HL-60; experiment: Cell cycle arrest in human HL-60 cells assessed as accumulation of cells at G2/M phase at 8 uM incubated for 48 hrs by propidium iodide based flow cytometric analysis (reference value: 6.61%); type: functional
[33] = system: HL-60; experiment: cells; type: functional, cell-based; details: Homo sapiens, HL-60, 72 h
Description: Antiproliferative activity against human HL-60 cells assessed as inhibition of cell viability measured after 72 hrs by real-time IncuCyte proliferation analysis

[34] = system: Escherichia coli; experiment: Antibacterial activity against Escherichia coli ATCC47076 assessed as growth inhibition after 20 hrs by broth microdilution method; type: functional
[35] = system: CAPAN-1; experiment: cells; type: functional, cell-based; details: Homo sapiens, CAPAN-1, 72 h
Description: Antiproliferative activity against human CAPAN-1 cells assessed as inhibition of cell viability measured after 72 hrs by colorimetric MTS viability assay

[36] = system: HL-60; experiment: Induction of apoptosis in human HL-60 cells assessed as late apoptotic cells at 6 uM after 48 hrs by Annexin V-PE/7-AAD dual staining based flow cytometry (reference value: 3.93%); type: functional

COc1ccc2[nH]cc(CCn3nnc4c3C(C)(C)[C@@H]3CC[C@]5(C)[C@H](CC=C6[C@@H]7CC(C)(C)CC[C@]7(C(=O)O)CC[C@]65C)[C@@]3(C)C4)c2c1
Activity [1]: 34.3% | Activity [2]: 50.1% | Activity [3]: 20% | Activity [4]: 8.13% | Activity [5]: 0.415% | Activity [6]: 0.317% | IC50 [7]: 8.7 µM | Activity [8]: 80% | Activity [9]: 24.83% | IC50 [10]: 12.8 µM | Activity [11]: 60.8% | MIC50 [12]: inactive | IC50 [13]: 7.2 µM | fold change (FC) [14]: 1.49 | IC50 [15]: 80.7 µM | Activity [16]: 20.46% | Activity [17]: 4.97% | IC50 [18]: 4.1 µM | IC50 [19]: 11.3 µM | Activity [20]: 13.7% | Activity [21]: 33.9% | Activity [22]: 3.06% | Activity [23]: 68.9% | Activity [24]: 3.16% | MIC50 [25]: 32.3 µg/mL (≈ 49.5 µM) | Activity [26]: 82.1% | Activity [27]: 20.4% | Activity [28]: 30.8% | Activity [29]: 7.66% | Activity [30]: 0.501% | Activity [31]: 67.5% | Activity [32]: 5.02% | IC50 [33]: 1.3 µM | MIC50 [34]: 413 µg/mL (≈ 632 µM) | IC50 [35]: 8.1 µM | Activity [36]: 6.26%
